Data from US9765105B2, “Macrolide compound” (Pulike Biological Engineering, Inc., priority 2013, dated 2017).

How the values were obtained:
[1] = acute toxicity test, single gastric perfusion; type: in vivo, Balb/c mice; details: 2000 mg/kg once by gastric perfusion, 85 mg/ml suspension; deaths after 6 h
Description: The marked parts of mice in the Syzx-24 group were respectively left hinder limbs (female), necks (female), right hinder limbs (male), and necks (male). The mice in the solvent control group were not marked.

[2] = system: Pasteurella multocida CVCC399; test: in vitro susceptibility, MIC by mini broth dilution; type: cell-based; details: strain CVCC399
Method in brief: (§1)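 MICs determined by mini broth dilution per NCCLS (now CLSI) standards. Strains revived from −20° C, subcultured twice on solid medium at 35° C for 20 h; compounds two-fold serially diluted in DMSO over 11 gradients, duplicate rows, bacterial suspension diluted 1:200 in liquid medium.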

[3] = system: Actinobacillus pleuropneumoniae CVCC262; test: as above; type: cell-based; details: strain CVCC262
Method in brief: as §1

Haemophilus parasuis = test: as above; type: cell-based
Method in brief: as §1

[4] = system: Streptococcus equines CVCC556; test: as above; type: cell-based; details: strain CVCC556
Method in brief: as §1

[5] = system: Staphylococcus aureus CVCC26003; test: as above; type: cell-based; details: strain CVCC26003
Method in brief: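 MICs were determined by mini broth dilution under NCCLS standards in CAMHB, using revived S. aureus CVCC26003 subcultured 20 h at 35° C. Compounds were two-fold serially diluted in DMSO across 11 wells, with duplicate rows. Bacterial suspension was diluted 1:200 in medium before inoculation.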

[6] = orally intoxicated mice; reported; cited from earlier work
[7] = system: Streptococcus pneumoniae CMCC 31203; test: in vivo antibacterial test, survival of infected mice; design: species or system BALB/c mice; details: observed until the seventh day
[8] = acute oral toxicity test, LD50 by improved karber method; details: for LD50: per os, gavaged once, in 0.2% sodium carboxymethylcellulose, observed 7 days; for LD50 at 7 days: both, Konmin, mouse, in vivo, po
[9] = medicament control group, Tulathromycin 10 mg per kg after infection
[10] = mice infected i.p. with Streptococcus pneumoniae, 5 mg per kg subcutaneous for 3 consecutive days

SMILES | MIC values, Pasteurella multocida CVCC399 [2] [ug/mi] | MIC values, Actinobacillus pleuropneumoniae CVCC262 [3] [ug/mi] | MIC values, Haemophilus parasuis (Haemophilus parasuis) [ug/mi] | MIC values, Streptococcus equines CVCC556 [4] [ug/mi] | MIC values, Staphylococcus aureus CVCC26003 [5] [ug/mi] | Animal survival rate (surviving/total animals) [7, 10] | LD50 at 7 days [8] [mg/kg] | further results
CC[C@H]1OC(=O)[C@H](C)[C@@H](O[C@H]2C[C@@](C)(OC)[C@](O)(CN(C)C)[C@H](C)O2)[C@H](C)[C@@H](O[C@@H]2O[C@H](C)C[C@H](N(C)C)[C@H]2O)[C@](C)(O)C[C@@H](C)NC[C@H](C)[C@@H](O)[C@]1(C)O [Syzx-24] | 0.25 | 0.25 | 0.5 | 0.25 | 0.5 | – | – | Death rate [1]: 0%; Number of dead animals/total number of animals [1]: 0/4
CCCNC[C@]1(O)[C@H](C)O[C@@H](O[C@H]2[C@H](C)[C@@H](O[C@@H]3O[C@H](C)C[C@H](N(C)C)[C@H]3O)[C@](C)(O)C[C@@H](C)CN[C@H](C)[C@@H](O)[C@](C)(O)[C@@H](CC)OC(=O)[C@@H]2C)C[C@@]1(C)OC [Tulathromycin, reference compound] | 0.25 | 0.25 | 0.25 | 0.25 | 0.25 | – | – | minimum lethal dose [6]: higher than 2000 mg/kg·d-1; Animal survival rate [7, 9]: 70%; Animal survival rate (surviving/total animals) [7, 9]: 7/10; Death rate [1]: 75%; Number of dead animals/total number of animals [1]: 3/4 (2 female and 1 male); LD50 [8]: 2379.2 mg/kg
CCCNC[C@]1(O)[C@H](C)O[C@@H](O[C@H]2[C@H](C)[C@@H](O[C@@H]3O[C@H](C)C[C@H](N(C)C)[C@H]3O)[C@](C)(O)C[C@@H](C)NC[C@H](C)[C@@H](O)[C@](C)(O)[C@@H](CC)OC(=O)[C@@H]2C)C[C@@]1(C)OC [syzx-1, (2R,3S,4R,5S,8R,10R,11R,12S,13S,14R)-13-[(2,6-dideoxy-3-C-methyl-3-O-methyl-4-C-[(propylamino)methyl]-α-L-ribopyranosyl)oxy]-2-ethyl-3,4,10-trihydroxy-3,5,8,10,12,14-hexamethyl-11-[[3,4,6-trideoxy-3-(dimethylamino)-β-D-xylo-hexopyranosy]oxy]-1-oxa-7-azacyclopentadecan-15-one] | 1 | 0.125 | 0.125 | 0.125 | 0.125 | 8/10 | – | Animal survival rate [7, 10]: 80%; LD50 [8]: 2584.8 mg/kg
CCNC[C@]1(O)[C@H](C)OC(O[C@@H]2[C@@H](C)[C@@H](O[C@@H]3O[C@H](C)C[C@H](N(C)C)[C@H]3O)[C@](C)(O)C[C@@H](C)NC[C@@H](C)[C@H](O)[C@](C)(O)[C@H](CC)OC(=O)[C@@H]2C)C[C@@]1(C)OC (stereo partly drawn) [syzx-10, (2R,3S,4R,5S,8R,10R,11R,12S,13S,14R)-13-[(2,6-dideoxy-3-C-methyl-3-O-methyl-4-C-[(ethylamino)methyl]-α-L-ribopyranosyl)oxy]-2-ethyl-3,4,10-trihydroxy-3,5,8,10,12,14-hexamethyl-11-[[3,4,6-trideoxy-3-(dimethylamino)-β-D-xylo-hexopyranosy]oxy]-1-oxa-7-azacyclopentadecan-15-one] | – | – | – | – | – | 9/10 | 2810 | –
CC[C@@H]1OC(=O)[C@H](C)[C@H](OC2C[C@@](C)(OC)[C@](O)(CNC(C)C)[C@H](C)O2)[C@@H](C)[C@@H](O[C@@H]2O[C@H](C)C[C@H](N(C)C)[C@H]2O)[C@](C)(O)C[C@@H](C)NC[C@@H](C)[C@H](O)[C@]1(C)O (stereo partly drawn) [syzx-11, (2R,3S,4R,5S,8R,10R,11R,12S,13S,14R)-13-[(2,6-dideoxy-3-C-methyl-3-O-methyl-4-C-[(isopropylamino)methyl]-α-L-ribopyranosyl)oxy]-2-ethyl-3,4,10-trihydroxy-3,5,8,10,12,14-hexamethyl-11-[[3,4,6-trideoxy-3-(dimethylamino)-β-D-xylo-hexopyranosy]oxy]-1-oxa-7-azacyclopentadecan-15-one] | – | – | – | – | – | 8/10 | 4200 | –
CC[C@@H]1OC(=O)[C@H](C)[C@H](OC2C[C@@](C)(OC)[C@](O)(CNCC(C)C)[C@H](C)O2)[C@@H](C)[C@@H](O[C@@H]2O[C@H](C)C[C@H](N(C)C)[C@H]2O)[C@](C)(O)C[C@@H](C)NC[C@@H](C)[C@H](O)[C@]1(C)O (stereo partly drawn) [syzx-12, (2R,3S,4R,5S,8R,10R,11R,12S,13S,14R)-13-[(2,6-dideoxy-3-C-methyl-3-O-methyl-4-C-[(isobutylamino)methyl]-α-L-ribopyranosyl)oxy]-2-ethyl-3,4,10-trihydroxy-3,5,8,10,12,14-hexamethyl-11-[[3,4,6-trideoxy-3-(dimethylamino)-β-D-xylo-hexopyranosy]oxy]-1-oxa-7-azacyclopentadecan-15-one] | – | – | – | – | – | 8/10 | 4310 | –
CC[C@@H]1OC(=O)[C@H](C)[C@H](OC2C[C@@](C)(OC)[C@](O)(CNC(C)(C)C)[C@H](C)O2)[C@@H](C)[C@@H](O[C@@H]2O[C@H](C)C[C@H](N(C)C)[C@H]2O)[C@](C)(O)C[C@@H](C)NC[C@@H](C)[C@H](O)[C@]1(C)O (some centres unmarked) [syzx-14] | – | – | – | – | – | 8/10 | 2590 | –
CC[C@@H]1OC(=O)[C@H](C)[C@H](OC2C[C@@](C)(OC)[C@](O)(CN3CCCCC3)[C@H](C)O2)[C@@H](C)[C@@H](O[C@@H]2O[C@H](C)C[C@H](N(C)C)[C@H]2O)[C@](C)(O)C[C@@H](C)NC[C@@H](C)[C@H](O)[C@]1(C)O (stereo partly drawn) [syzx-15, (2R,3S,4R,5S,8R,10R,11R,12S,13S,14R)-13-[(2,6-dideoxy-3-C-methyl-3-O-methyl-4-C-[piperidinylmethyl]-α-L-ribopyranosyl)oxy]-2-ethyl-3,4,10-trihydroxy-3,5,8,10,12,14-hexamethyl-11-[[3,4,6-trideoxy-3-(dimethylamino)-β-D-xylo-hexopyranosy]oxy]-1-oxa-7-azacyclopentadecan-15-one] | – | – | – | – | – | 8/10 | 2660 | –
CC[C@@H]1OC(=O)[C@H](C)[C@H](OC2C[C@@](C)(OC)[C@](O)(CNCC3CC3)[C@H](C)O2)[C@@H](C)[C@@H](O[C@@H]2O[C@H](C)C[C@H](N(C)C)[C@H]2O)[C@](C)(O)C[C@@H](C)NC[C@@H](C)[C@H](O)[C@]1(C)O (stereo partly drawn) [syzx-17, (2R,3S,4R,5S,8R,10R,11R,12S,13S,14R)-13-[(2,6-dideoxy-3-C-methyl-3-O-methyl-4-C-[(cyclopropylmethylamino)methyl]-α-L-ribopyranosyl)oxy]-2-ethyl-3,4,10-trihydroxy-3,5,8,10,12,14-hexamethyl-11-[[3,4,6-trideoxy-3-(dimethylamino)-β-D-xylo-hexopyranosy]oxy]-1-oxa-7-azacyclopentadecan-15-one] | – | – | – | – | – | 8/10 | 2670 | –
CC[C@@H]1OC(=O)[C@H](C)[C@H](OC2C[C@@](C)(OC)[C@](O)(CNCCOC)[C@H](C)O2)[C@@H](C)[C@@H](O[C@@H]2O[C@H](C)C[C@H](N(C)C)[C@H]2O)[C@](C)(O)C[C@@H](C)NC[C@@H](C)[C@H](O)[C@]1(C)O (some centres unmarked) [syzx-58] | – | – | – | – | – | 8/10 | 3550 | –
CCCNC[C@]1(O)[C@H](C)O[C@@H](O[C@H]2[C@H](C)[C@@H](O[C@@H]3O[C@H](C)C[C@H](N(C)C)[C@H]3O)[C@](C)(O)C[C@@H](C)N(CCC)C[C@H](C)[C@@H](O)[C@](C)(O)[C@@H](CC)OC(=O)[C@@H]2C)C[C@@]1(C)OC [syzx-101, (2R,3S,4R,5S,8R,10R,11R,12S,13S,14R)-13-[(2,6-dideoxy-3-C-methyl-3-O-methyl-4-C-[(n-propylamino)-methyl]-α-L-ribopyranosyl)oxy]-2-ethyl-3,4,10-trihydroxy-3,5,8,10,12,14-hexamethyl-7-propyl-11-[[3,4,6-trideoxy-3-(dimethylamino)-β-D-xylo-hexopyranosy]oxy]-1-oxa-7-azacyclopentadecan-15-one] | 0.125 | 0.125 | 0.125 | 0.125 | 0.125 | 9/10 | – | Animal survival rate [7, 10]: 90%; LD50 [8]: 3760.6 mg/kg
CCCN1C[C@@H](C)[C@@H](O)[C@](C)(O)[C@H](CC)OC(=O)[C@H](C)[C@H](OC2C[C@@](C)(OC)[C@](O)(CN(C)CC)[C@H](C)O2)[C@H](C)[C@@H](O[C@@H]2O[C@H](C)C[C@H](N(C)C)[C@H]2O)[C@](C)(O)C[C@H]1C (some centres unmarked) [syzx-213] | – | – | – | – | – | 9/10 | 2790 | –
